System: brains, heart, liver, muscle, and DRG of the NHPs
Assay: Maturation of TTM-001 and TTM-002 capsids, NGS enrichment in NHP tissues
Format: in vivo
Description: This Example describes maturation of the AAV9 capsid variants, TTM-001 (SEQ ID NO: 981 (amino acid) and 983 (DNA), comprising SEQ ID NO: 941 (encoded by SEQ ID NO: 942)) and TTM-002 (SEQ ID NO: 982 (amino acid) and 984 (DNA), comprising SEQ ID NO: […] (encoded by SEQ ID NO: 944)) in NHPs to further enhance their transduction and biodistribution in the central nervous system as well as other tissues, and evolve the AAV capsid variants to provide further cross-species compatibility. Two approaches were used to mature the TTM-001 and TTM-002 capsid sequences in order to randomize and mutate within and around the peptide insert comprised within loop IV of the capsid variant. […] In the first maturation approach, sets of three contiguous amino acids were randomized across the mutagenesis region in the TTM-001 and TTM-002 sequences, which spanned from position 450 to position 466, numbered according to SEQ ID NO: 981 and 982. In the second maturation approach, mutagenic primers were used to introduce point mutations at a low frequency, scattered across the mutagenesis region in the TTM-001 and TTM-002 sequences ranging from position 449 to position 466, numbered according to SEQ ID NO: 981 and 982. AAV capsid variants arising from each maturation approach for TTM-001 and TTM-002 were pooled together, for subsequent testing and characterization in NHPs.
The library of pooled matured AAV capsid variants generated using the first maturation approach and the second maturation approach for the TTM-001 and TTM-002 AAV capsid variants were injected into two NHPs. […] Following RNA recovery and RT-PCR amplification, a systematic NGS enrichment analysis was performed to calculate the fold enrichment ratio relative to an AAV9 control, and the peptides comprised within the variants were identified.
Following the RNA recovery and NGS analysis from the second maturation approach, approximately 680,000 capsid variants were identified. The 680,000 matured capsid variants were then filtered based on samples with a raw virus count greater than 10 and a coefficient of variance (CV) of less than 1, which was calculated for each peptide across the brain samples taken from the two NHPs. […] Using this filtering criteria, this led to approximately 64,000 matured capsid variants.

[1] = NHP DRG, NGS, relative to AAV9 control
[2] = NHP brain, NGS, relative to AAV9 control
[3] = NHP heart, NGS, relative to AAV9 control
[4] = NHP liver DNA, NGS, relative to AAV9 control
[5] = NHP liver RNA, NGS, TTM-001 and TTM-002 matured AAV capsid variants, relative to AAV9 control
[6] = NHP muscle, NGS, relative to AAV9 control

Sequence | Fold Enrichment relative to AAV9, DRG (NHP) [1] | Fold Enrichment relative to AAV9, Brain (NHP) [2] | Fold Enrichment relative to AAV9, Heart (NHP) [3] | Fold Enrichment relative to AAV9, Liver DNA (NHP) [4] | Fold Enrichment relative to AAV9, Liver RNA (NHP) [5] | Fold Enrichment relative to AAV9, Muscle (NHP) [6] | Fold Enrichment relative to AAV9, DRG (NHP) (NGS fold-enrichment, DRG, NHP, relative to AAV9) | Fold Enrichment relative to AAV9, Brain (NHP) (NGS fold-enrichment, brain, NHP, relative to AAV9) | Fold Enrichment relative to AAV9, Heart (NHP) (NGS fold-enrichment, heart, NHP, relative to AAV9) | Fold Enrichment relative to AAV9, Liver DNA (NHP) (NGS fold-enrichment, liver DNA, NHP, relative to AAV9) | Fold Enrichment relative to AAV9, Liver RNA (NHP) (NGS fold-enrichment, liver RNA, NHP, relative to AAV9) | Fold Enrichment relative to AAV9, Muscle (NHP) (NGS fold-enrichment, muscle, NHP, relative to AAV9)
KTINGSGSPHLPTQNQQT | 0.000 fold | 0.000 fold | 0.000 fold | 3.127 fold | 20.704 fold | 0.000 fold |  |  |  |  |  | 
KTINGLDSPHRSRQNQQT | 0.000 fold | 0.000 fold | 0.000 fold | 0.321 fold | 26.403 fold | 0.000 fold |  |  |  |  |  | 
KTINGSGSPHSMCQNQQT | 0.000 fold | 0.000 fold | 0.000 fold | 1.348 fold | 37.209 fold | 0.000 fold |  |  |  |  |  | 
KTINGSGSPHSKAHARQT | 0.000 fold | 0.000 fold | 0.000 fold | 1.800 fold | 17.075 fold | 0.000 fold |  |  |  |  |  | 
KTINGSGSPHSKRYTQQT | 0.000 fold | 0.000 fold | 0.000 fold | 9.412 fold | 25.267 fold | 0.000 fold |  |  |  |  |  | 
KTINFTRSPHSKAQNQQT | 0.000 fold | 0.000 fold | 0.000 fold | 3.751 fold | 14.908 fold | 0.000 fold |  |  |  |  |  | 
KTINGSGSPHSPPDNQQT | 0.000 fold | 0.000 fold | 0.000 fold | 0.033 fold | 12.973 fold | 0.000 fold |  |  |  |  |  | 
KTINGSGSPHSKALRWQT | 0.000 fold | 0.000 fold | 0.000 fold | 5.252 fold | 14.118 fold | 0.000 fold |  |  |  |  |  | 
KTINGAYSPHRKAQNQQT | 0.000 fold | 0.000 fold | 0.000 fold | 1.283 fold | 40.969 fold | 0.000 fold |  |  |  |  |  | 
KTINKCLSPHSKAQNQQT | 0.000 fold | 0.000 fold | 0.000 fold | 5.097 fold | 30.667 fold | 0.000 fold |  |  |  |  |  | 
KTINGSGSPHVYHQNQQT | 0.000 fold | 0.000 fold | 0.000 fold | 1.733 fold | 14.770 fold | 0.000 fold |  |  |  |  |  | 
KTINGSGSPHSKAQSRKT | 0.000 fold | 0.000 fold | 0.000 fold | 2.715 fold | 14.589 fold | 0.000 fold |  |  |  |  |  | 
KTINGSGSPHSKAPRRQT | 0.000 fold | 0.000 fold | 0.000 fold | 3.940 fold | 21.645 fold | 0.000 fold |  |  |  |  |  | 
KTINGSGSPHSKARMYQT | 0.000 fold | 0.000 fold | 0.000 fold | 0.313 fold | 23.424 fold | 0.000 fold |  |  |  |  |  | 
KTRRPSGSPHSKAQNQQT | 0.000 fold | 0.000 fold | 0.000 fold | 2.384 fold | 42.374 fold | 0.000 fold |  |  |  |  |  | 
KTINGSGSPHSKAQFCLT |  |  |  |  |  |  | 0.000 fold | 0.000 fold | 0.000 fold | 3.371 fold | 10.065 fold | 0.000 fold
KTINGSGSPHSKRVVQQT | 0.000 fold | 0.000 fold | 0.000 fold | 1.639 fold | 11.094 fold | 0.000 fold |  |  |  |  |  | 
KTINGSGSPHYGIQNQQT | 0.000 fold | 0.000 fold | 0.000 fold | 1.076 fold | 30.908 fold | 0.000 fold |  |  |  |  |  | 
KTINGSGSPHLVYQNQQT | 0.000 fold | 0.000 fold | 0.000 fold | 1.045 fold | 14.196 fold | 0.000 fold |  |  |  |  |  | 
KTINGSYSPHCLAQNQQT (peptide inserted in AAV capsid) | 0.000 fold | 0.000 fold | 0.000 fold | 0.309 fold | 62.942 fold | 0.000 fold |  |  |  |  |  | 

— patent US20260250318A1, “COMPOSITIONS AND METHODS FOR CROSSING THE BLOOD BRAIN BARRIER” (VOYAGER THERAPEUTICS, INC., priority 2022, published 2026)
